Experimental data: US8952054B2, “Small molecule inhibitors of MUC1 and methods of identifying the same” (Dana-Farber Cancer Institute, Inc., priority 2010, dated 2015)

Assays:
[1] = biological target: T1, MUC1-C (Homo sapiens, UniProt P15941); assay: Immunoblot of whole cell and nuclear MUC1-C levels in ZR-75-1 cells; type: cell-based; parameters: Human ZR-75-1 and MCF-7 breast cancer cells overexpress endogenous MUC1; endogenous in cells; host or cells: ZR-75-1; MCF-7; conditions: ZR-75-1, 5 μM peptide, 3 d; for nuclear MUC1-C levels: nuclear lysates; for cellular MUC1-C levels: whole cell lysates
T1 sequence (P15941 1098-1255 limits assumed): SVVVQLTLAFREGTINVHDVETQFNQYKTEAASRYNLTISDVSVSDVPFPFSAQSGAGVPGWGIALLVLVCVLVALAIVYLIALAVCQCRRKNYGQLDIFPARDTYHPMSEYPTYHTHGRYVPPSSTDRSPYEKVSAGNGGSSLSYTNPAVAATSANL
Method: FIGS. 2A-C. MUC1/CQC peptide blocks nuclear localization of MUC1-C. (FIG. 2A) ZR-75-1 cells were incubated with 5 μM FITC-labeled MUC1/CQC peptide for the indicated times and then analyzed by flow cytometry. The mean fluorescence index (MFI) is included in each of the panels. (FIGS. 2B-C) ZR-75-1 (FIG. 2B) and MCF-7 (FIG. 2C) cells were incubated in the presence of 5 μM MUC1/CQC or MUC1/AQA peptide for 3 d. Whole cell lysates (WCL) (left panels) and nuclear lysates (right panels) were immunoblotted with the indicated antibodies.
Whole cell and nuclear lysates were prepared as described (Leng et al., 2007). Soluble proteins were subjected to immunoprecipitation with anti-Flag (Sigma, St. Louis, Mo.). Immunoprecipitates and soluble proteins were analyzed by immunoblotting with anti-His (Cell Signaling Technology, Danvers, Mass.), anti-GFP (Millipore, Danvers, Mass.), anti-Flag, anti-MUC1-C (Ab1; NeoMarkers, Fremont, Calif.), anti-lamin B (EMD, La Jolla, Calif.) or anti-β-actin (Sigma). Reactivity was detected with horseradish peroxidase-conjugated second antibodies and chemiluminescence.

[2] = system: MCF-10A cells; assay: MCF-10A cell number (MTS), caspase-9 cleavage and PI uptake; type: cell-based, human; conditions: 3 d
Method: (§1) FIGS. 13A-D—Apigenin downregulates MUC1 and confers death of MCF-10A cells. (FIG. 13A) MCF-10A cells were treated with the indicated concentrations of apigenin and baicalein for 3 d, washed and then treated for an additional 3 d. Lysates were immunoblotted with the indicated antibodies. (FIG. 13B) MCF-10A cells were treated with the indicated concentrations apigenin (circles) and baicalein (squares) for 3 d. Viable cell number was determined by the MTS assay. The results (mean+SD of 3 determinations) are expressed as percentage of control growth in the presence of DMSO. (FIG. 13C) MCF-10A cells were treated with DMSO, 75 μM apigenin or 75 μM baicalein for 3 d. Lysates were subjected to immunoblotting with the indicated antibodies. (FIG. 13D) MCF-10A cells were treated with DMSO, 75 μM apigenin or 75 μM baicalein for 3 d, stained with propidium iodide and analyzed by flow cytometry.

[3] = system: MUC1; assay: MUC1 mRNA (qRT-PCR) and MUC1-C protein (immunoblot) in MCF-7 cells; type: cell-based, human; conditions: for MUC1 mRNA levels: MCF-7, 75 μM, 3 d, qRT-PCR; for MUC1-C protein in the nucleus / MUC1-C protein in whole cell lysates: MCF-7, 3 days
Method: FIGS. 14A-E—Apigenin suppresses MUC1 expression in MCF-7 cells. (FIG. 14A) MCF-7 cells were treated with DMSO vehicle, 75 μM apigenin or 75 μM baicalein for 3 d. Total RNA was assayed for MUC1 mRNA levels by qRTPCR. The results (mean+SD of 3 determinations) are expressed as relative MUC1 mRNA levels as compared to that obtained in cells treated with DMSO. (FIGS. 14B-C) MCF-7 cells were treated with the indicated concentrations of apigenin and baicalein for 3 days. Nuclear (FIG. 14B) and whole cell lysates (FIG. 14C) were immunoblotted with the indicated antibodies. D. Lysates from MCF-7 cells were infected to stably express a control lentivirus and one with a MUC1 shRNA were immunoblotted with the indicated antibodies. (FIG. 14E) The indicated MCF-7 cells were treated with […] apigenin for 3 d. Viable cell number was determined by the MTS assay. The results (mean+SD of 3 determinations) are expressed as percentage of control growth in the presence of DMSO.

[4] = system: MUC1 promoter; assay: MUC1-C occupancy on the MUC1 promoter; type: cell-based
[5] = biological target: T1, MUC1-C; assay: Immunoblot of MUC1-C levels in MCF-10A cells (flavones); type: cell-based; parameters: endogenous in cells; conditions: 50 to 100 μM, 3 d then additional 3 d
Method: as §1

Row | nuclear MUC1-C levels [1] | cellular MUC1-C levels [1] | MUC1-C levels [5] | Molecule | caspase-9 cleavage ([2]; 75 μM) | cell number (MTS) [2] | MUC1 mRNA levels [3] | MUC1-C protein in the nucleus [3] | MUC1-C protein in whole cell lysates [3] | MUC1-C occupancy on the MUC1 promoter [4] | cell membrane integrity (PI uptake) ([2]; 75 μM)
1 | not | no effect |  | MUC1/AQA: control peptide in which the CQC motif was altered to AQA (SEQ ID NO: 11) (AQARRKNYGQLDIFP) [reference compound] |  |  |  |  |  |  | 
2 |  |  | no apparent effect | O=c1cc(-c2ccccc2)oc2cc(O)c(O)c(O)c12 [Baicalein, 5,6,7-trihydroxyflavone, reference compound] | not | substantially less effective | no apparent effect | not | not | not | 
3 |  |  | downregulation of MUC1-C levels | O=c1cc(-c2ccc(O)cc2)oc2cc(O)cc(O)c12 [Apigenin, 4′,5,7-trihydroxyflavone] | caspase-9 cleavage | decreased MCF-10A cell number | downregulation of MUC1 mRNA levels | decreased expression of the MUC1-C protein | decreased expression of the MUC1-C protein | blocked MUC1-C occupancy on the MUC1 promoter | loss of cell membrane integrity
4 | decreases in nuclear MUC1-C levels | no effect |  | CC[C@H](C)[C@H](NC(=O)[C@H](CC(=O)O)NC(=O)[C@H](CC(C)C)NC(=O)[C@H](CCC(N)=O)NC(=O)CNC(=O)[C@H](Cc1ccc(O)cc1)NC(=O)[C@H](CC(N)=O)NC(=O)[C@H](CCCCN)NC(=O)[C@H](CCCNC(=N)N)NC(=O)[C@H](CCCNC(=N)N)NC(=O)[C@H](CS)NC(=O)[C@H](CCC(N)=O)NC(=O)[C@H](CS)NC(=O)[C@@H](CCCNC(=N)N)NC(=O)[C@@H](CCCNC(=N)N)NC(=O)[C@@H](CCCNC(=N)N)NC(=O)[C@@H](CCCNC(=N)N)NC(=O)[C@@H](CCCNC(=N)N)NC(=O)[C@@H](CCCNC(=N)N)NC(=O)[C@@H](CCCNC(=N)N)NC(=O)[C@@H](CCCNC(=N)N)NC(=O)[C@H](N)CCCNC(=N)N)C(=O)N[C@@H](Cc1ccccc1)C(=O)N1CCC[C@H]1C(=O)O [MUC1/CQC] |  |  |  |  |  |  | 
